According to patent US20090042849A1, “Phosphorylation of 5-lipoxygenase at ser523 and uses thereof” (priority 2006, published 2009):
“Also recorded” adds a separate entry of the source.

How the values were obtained:
[1] = test system: 5LO interaction with COX2 / cPLA2; test: co-immunoprecipitation of 5LO with COX2 and cPLA2 in rat hearts; assay type: in vivo
Description: Rats received: 1) PIO (10 mg/kg/d); 2) ATV (10 mg/kg/d); 3) PIO (10 mg/kg/d)+H89 (20 mg/kg); 4) ATV (10 mg/kg/d)+H89 (20 mg/kg); 5) H89 (20 mg/kg) or 6) water alone (control). PIO and ATV were suspended in water and administered by gastric gavage once daily for 3 days; H-89 was dissolved in DMSO (final concentration 5% v/v) and injected intraperitoneally on the third day. Rats in groups 5 and 6 received water by gastric gavage once daily for 3 days. Rats in groups 1, 2 and 6 received intraperitoneal inkection of DMSO 5%. Sixteen hours after the injection, rats were euthanized and the hearts explanted for further analyses. In another experiment, rats received 3-day pretreatment with: 1) water (sham); 2) PIO (10 mg/kg/d); 3) ATV (10 mg/kg/d); 4) PIO (10 mg/kg/d)+ATV (10 mg/kg/d); or 5) LPS (10 mg/kg).
For co-immunoprecipitation, myocardial cytosolic, membranous and nuclear fractions (500 μg) were incubated with anti-5LO antibodies for 4 h followed by overnight incubation at 4° C. with Protein-A-Agarose. The agarose beads were collected by centrifugation and SDS/PAGE Western immunoblotting was performed with the supernatant fraction. The anti-5LO precipitates were subjected to immunoblotting with anti-COX2 or anti-cPLA2 antibodies.

[2] = test system: rat infarct model; test: rat infarct model, infarct size; assay type: in vivo; settings: ATV 2 mg/kg/d, cilostazol 20 mg/kg/d, alone or combined
Description: The effects of cilostazol (Pletal) and atorvastatin on myocardial protection was measured in a rat infarct model. Pletal is a phosphodiesterase III inhibitor, thus increasing intracellular cAMP levels. cAMP activates PKA. ATV at 2 mg/kg/d had no effect. Cilostazol 20 mg/kg/d reduced infarct size. However, when combined with ATV 2 mg/kg/d the effect was much greater. There are 8 rats in the control and ATV 2 mg/kg/d groups and 6 rats in the cilostazol and the combination groups. Infarct size in the ATV 2 mg/kg/d (30.48±1.46%) is not different from the controls (33.97±2.76%).

[3] = test system: LTB4; test: LTB4 levels in adult rat cardiac myocytes (ELISA); assay type: cell-based; settings: PIO 10 μM, ATV 10 μM, H-89 0.1 μM, 12 hours
Description: Cardiac myocytes were isolated from adult Sprague-Dawley rats (250-300 g, male). Animals were heparinized (1,000-2,000 units i.p.) 5 min before being anesthetized with ketamine (100 mg/kg) and xylazine (10 mg/kg), and the hearts were removed and placed in ice-cold heart media solution (in mmol/l: 112 NaCl, 5.4 KCl, 1 MgCl2, 9 NaH2PO4, and 11.1 D-glucose; supplemented with 10 HEPES, 30 taurine, 2 DL-carnitine, and 2 creatine, pH. 7.4). The hearts were perfused retrogradely in a Langendorff apparatus with Ca^2+-free heart media for 5 min at 5 ml/min at 37° C., followed by perfusion with Ca^2+-free heart media containing collagenase II, 210 U/mg (Worthington, Lakewood, N.J.) for 20 min. After perfusion, both ventricles were removed from the heart and minced in collagenase II-containing heart media for 10-15 min. The cell solution was then washed several times to remove collagenase II and reexposed to 1.2 mM Ca2^+ over 25 min to produce Ca2^+-tolerant cardiac myocytes. Myocytes were then plated in 4% FBS on laminin (2 μg/cm^2)-coated plates for 1 h and incubated at 37° C. in 5% CO2 for 12-24 h before experiments (21). Cells were incubated with 1) vehicle (0.07% ethanol); 2) PIO (10 μM)+ATV (10 μM); 3) H-89 (0.1 μM); or 4) PIO+ATV+H-89 for 12 hours. The supernatants were collected directly for LTB4 analyses by ELISA and the cells were harvested for immunoblotting. […]

[4] = test system: 5LO (P-5LO); test: immunoblotting of 5LO and P-5LO in adult rat cardiac myocyte cultures; assay type: cell-based; settings: H-89 0.1 μM with PIO+ATV
Description: Cardiac myocytes were isolated from adult Sprague-Dawley rats (250-300 g, male). Animals were heparinized (1,000-2,000 units i.p.) 5 min before being anesthetized with ketamine (100 mg/kg) and xylazine (10 mg/kg), and the hearts were removed and placed in ice-cold heart media solution (in mmol/l: 112 NaCl, 5.4 KCl, 1 MgCl2, 9 NaH2PO4, and 11.1 D-glucose; supplemented with 10 HEPES, 30 taurine, 2 DL-carnitine, and 2 creatine, pH. 7.4). The hearts were perfused retrogradely in a Langendorff apparatus with Ca^2+-free heart media for 5 min at 5 ml/min at 37° C., followed by perfusion with Ca^2+-free heart media containing collagenase II, 210 U/mg (Worthington, Lakewood, N.J.) for 20 min. […]
The hearts were rapidly explanted, rinsed in cold PBS (pH 7.4), containing 0.16 mg/ml heparin to remove red blood cells and clots, frozen in liquid nitrogen and stored at −70° C. […] The supernatant was collected and the total protein concentration was determined using the Lowry protein assay. […] The protein samples with loading buffer were run in 4-20% Tri-HCl Ready Gel at a 100V for 2 h until the desired molecular weight bands were separated. […] The protein signals were quantified by an image-scanning-densitometer and the strength of each protein signal was normalized to the corresponding b-actin stain signal. Data are expressed as a ratio between the protein and the corresponding b-actin signal density.

Row | Structure (SMILES) | fraction in which the co-immunoprecipitation with 5LO occurred ([1]; cytosolic and membranous fractions) | co-immunoprecipitation of COX2 or cPLA2 with 5LO ([1]; whole cell lysate) | Infarct size [2] [%] | effect on infarct size (in words) [2] | LTB4 levels [3] | effect on the 5LO phosphorylation by PIO+ATV [4]
1 | CC(C)c1c(C(=O)Nc2ccccc2)c(-c2ccccc2)c(-c2ccc(F)cc2)n1CCC(O)CC(O)CC(=O)O (stereo not drawn) [ATV, 7-[2-(4-fluorophenyl)-5-(1-methylethyl)-3-phenyl-4-(phenylcarbamoyl)-1H-pyrrol-1-yl]-3,5-dihydroxy-heptanoic acid] | in the cytosolic, but not the membranous fraction; also recorded: only in the cytosolic fraction | 5LO precipitated with COX2 and COX2, but not cPLA2, precipitated with 5LO | 30.48±1.46 | no effect | – | –
2 | O=S(=O)(NCCNC/C=C/c1ccc(Br)cc1)c1cccc2cnccc12 [H-89] | – | – | – | – | no significant effect | almost completely blocked
